Data: publication PMC6930567, “NMR Study of the Secondary Structure and Biopharmaceutical Formulation of an Active Branched Antimicrobial Peptide” (Molecules, 2019)
Where a name gives a salt, the structure may show the parent alone. Read-outs that look alike come from different tables or passages of the source. Positions of bridges follow the written chain, without caps; N, C: chain ends. Non-standard residues stand in square brackets, D forms with d. Residues, ends and D or L forms follow the SMILES beside them. Chains are numbered I, II in the order given. βAla = NCCC(=O)O

Columns and labels:
CD1 mice [1] = settings: cited from earlier work; for signs of acute toxicity in vivo: scored not-observable, mild, severe
Procedure: (§1) Table 4 Signs of acute toxicity in vivo of the three SET-M33 salts. | column: 20 mg/kg; 25 mg/kg || Acute toxicity of SET-M33 chloride was tested in mice and compared with the acetate and TFA counter-ions. Ten animals per group (five males and five females) were injected with two doses of SET-M33 chloride, 20 and 30 mg/kg, known to be below the LD50 [7]. Signs of toxicity were scored as not-observable, mild and severe. SET-M33 chloride and SET-M33 acetate scored 100% not-observable (Table 4), unlike the TFA that scored 100% toxicity at 25 mg/kg, described as 33% severe and 66% mild.

E. coli TG-1 = type: cell-based; settings: TG-1, 24 h
Procedure: (§2) Antimicrobial susceptibility was assessed by determining the minimum inhibitory concentrations (MICs) of SET-[…] acetate and SET-[…] chloride against E. coli TG-1 and P. aeruginosa PAO-1, using the broth microdilution technique according to 2017 EUCAST guidelines. The MIC assay measures visible inhibition of bacterial growth after 24 h exposure of bacteria to antibiotic in Mueller-Hinton (MH) broth. Assays were performed in triplicate using a bacterial inoculum of 5 × 10^4 CFU/well in a final volume of 100 μL. The twofold antibiotic concentration ranged from 0.1 μM to 12 μM for both peptides. MICs were read after 24 h of incubation at 35 °C.

P. aeruginosa PAO-1 = type: cell-based; settings: PAO-1, 24 h
Procedure: as §2

[2] = test system: T24 human bladder epithelial cells; type: cell-based; settings: 48 h
Procedure: (§3) T24 human epithelial bladder cells, 16HBE14o- human bronchial epithelial cells and RAW264.7 mouse macrophages were plated at a density of 2.5 × 10^4 cells/well in 96-well microplates. The 16HBE14o- cells were previously incubated with coating solution (88% LHC basal medium, 10% bovine serum albumin, 30 µg/mL bovine collagen type I and 1% human fibronectin). Different concentrations of SET-M33 TFA, acetate and chloride were added 24 h after plating. Cells were grown for 48 h at 37 °C. Their viability was assessed by 3-(4,5-dimethylthiazol-2-yl)2,5-diphenyltetrazolium bromide (MTT) assay. EC50 values were obtained by dose-response variable slope analysis using GraphPad Prism 5.03 software (San Diego, CA, USA).

[3] = test system: RAW264.7 mouse macrophages; type: cell-based; settings: 48 h
Procedure: as §3

[4] = test system: 16HBE14o- human bronchial epithelial cells; type: cell-based; settings: 48 h
Procedure: as §3

CD1 mice [5] = assay: Acute toxicity in mice; type: in vivo, mouse; settings: for signs of acute toxicity in vivo: 10/group, monitored 96 h, scored not-observable, mild, severe; for share of animals scored not-observable for signs of toxicity: i.v. single dose, chloride 20 and 30 mg/kg, acetate 25 and 30 mg/kg
Procedure: as §1, with “Acute” for “Table 4 Signs of acute toxicity in vivo of the three SET-M33 salts. | column: 20 mg/kg; 25 mg/kg || Acute”
All animal experiments were conducted under the protocol approved by the Italian Ministry of Health at the Toscana Life Sciences Foundation animal facility in Siena, Italy (authorization n. 34/2016PR). Animals (10 CD1 mice/group, 20–22 g) were injected i.v. with SET-M33 acetate (group 1 and group 2) and SET-M33 chloride (group 3 and group 4), in a single dose. The doses were: group 1, 25 mg/kg SET-M33 acetate; group 2, 30 mg/kg SET-M33 acetate; group 3, 20 mg/kg SET-M33 chloride and group 4, 30 mg/kg SET-M33 chloride. Animals were monitored for 96 h. Signs of toxicity were checked four times a day by visual inspection and were scored as not-observable, mild and severe. Mice were weighed every day from arrival to the last day of the experiment. Animals with clear signs of distress, such as reduced mobility and weight loss greater than 20%, were anesthetized and sacrificed with carbon dioxide or by cervical dislocation.

Row | Structure (SMILES) | signs of acute toxicity in vivo (CD1 mice [1]; 20 mg/kg) | MIC (E. coli TG-1) | MIC (P. aeruginosa PAO-1) | EC50 [2] | EC50 [3] | EC50 [4] | signs of acute toxicity in vivo (CD1 mice [5]; 25 mg/kg i.v. single dose) | signs of acute toxicity in vivo (CD1 mice [5]; 30 mg/kg i.v. single dose) | share of animals scored not-observable for signs of toxicity (CD1 mice [5]) | signs of acute toxicity in vivo (CD1 mice [5]; 20 mg/kg i.v. single dose) | signs of acute toxicity in vivo (CD1 mice [1]; 25 mg/kg) | share of animals with mild signs of toxicity (CD1 mice [1]; 25 mg/kg) | share of animals with severe signs of toxicity (CD1 mice [1]; 25 mg/kg) | toxicity score (share of animals with signs of toxicity) (CD1 mice [1]; 25 mg/kg)
1 | CC[C@H](C)[C@H](NC(=O)[C@H](CCCCN)NC(=O)[C@@H](N)CCCCN)C(=O)N[C@@H](CCCNC(=N)N)C(=O)N[C@H](C(=O)N[C@@H](CCCNC(=N)N)C(=O)N[C@@H](CC(C)C)C(=O)N[C@@H](CO)C(=O)N[C@@H](C)C(=O)NCCCC[C@H](NC(=O)[C@H](C)NC(=O)[C@H](CO)NC(=O)[C@H](CC(C)C)NC(=O)[C@H](CCCNC(=N)N)NC(=O)[C@@H](NC(=O)[C@H](CCCNC(=N)N)NC(=O)[C@@H](NC(=O)[C@H](CCCCN)NC(=O)[C@@H](N)CCCCN)[C@@H](C)CC)C(C)C)C(=O)NCCCC[C@H](NC(=O)[C@H](CCCCNC(=O)[C@H](C)NC(=O)[C@H](CO)NC(=O)[C@H](CC(C)C)NC(=O)[C@H](CCCNC(=N)N)NC(=O)[C@@H](NC(=O)[C@H](CCCNC(=N)N)NC(=O)[C@@H](NC(=O)[C@H](CCCCN)NC(=O)[C@@H](N)CCCCN)[C@@H](C)CC)C(C)C)NC(=O)[C@H](C)NC(=O)[C@H](CO)NC(=O)[C@H](CC(C)C)NC(=O)[C@H](CCCNC(=N)N)NC(=O)[C@@H](NC(=O)[C@H](CCCNC(=N)N)NC(=O)[C@@H](NC(=O)[C@H](CCCCN)NC(=O)[C@@H](N)CCCCN)[C@@H](C)CC)C(C)C)C(=O)NCCC(=O)O)C(C)C [SET-M33 acetate] (I: H-KKIRVRLSAKK[βAla]-OH / II: H-KKIRVRLSAK / III: H-KKIRVRLSA / IV: H-KKIRVRLSA; amide I:10-IV:C, I:11-II:C, II:10-III:C) | not-observable [6] | 1.5 µM | 3 µM | 12.4 µM | 5.1 µM | 9.62 µM | not-observable | not-observable | 100% |  |  |  |  | 
2 | CC[C@H](C)[C@H](NC(=O)[C@H](CCCCN)NC(=O)[C@@H](N)CCCCN)C(=O)N[C@@H](CCCNC(=N)N)C(=O)N[C@H](C(=O)N[C@@H](CCCNC(=N)N)C(=O)N[C@@H](CC(C)C)C(=O)N[C@@H](CO)C(=O)N[C@@H](C)C(=O)NCCCC[C@H](NC(=O)[C@H](C)NC(=O)[C@H](CO)NC(=O)[C@H](CC(C)C)NC(=O)[C@H](CCCNC(=N)N)NC(=O)[C@@H](NC(=O)[C@H](CCCNC(=N)N)NC(=O)[C@@H](NC(=O)[C@H](CCCCN)NC(=O)[C@@H](N)CCCCN)[C@@H](C)CC)C(C)C)C(=O)NCCCC[C@H](NC(=O)[C@H](CCCCNC(=O)[C@H](C)NC(=O)[C@H](CO)NC(=O)[C@H](CC(C)C)NC(=O)[C@H](CCCNC(=N)N)NC(=O)[C@@H](NC(=O)[C@H](CCCNC(=N)N)NC(=O)[C@@H](NC(=O)[C@H](CCCCN)NC(=O)[C@@H](N)CCCCN)[C@@H](C)CC)C(C)C)NC(=O)[C@H](C)NC(=O)[C@H](CO)NC(=O)[C@H](CC(C)C)NC(=O)[C@H](CCCNC(=N)N)NC(=O)[C@@H](NC(=O)[C@H](CCCNC(=N)N)NC(=O)[C@@H](NC(=O)[C@H](CCCCN)NC(=O)[C@@H](N)CCCCN)[C@@H](C)CC)C(C)C)C(=O)NCCC(=O)O)C(C)C [SET-M33 chloride] (I: H-KKIRVRLSAKK[βAla]-OH / II: H-KKIRVRLSAK / III: H-KKIRVRLSA / IV: H-KKIRVRLSA; amide I:10-IV:C, I:11-II:C, II:10-III:C) |  | 1.5 µM | 1.5 µM | 22.6 µM | 6.12 µM | 10.3 µM |  | not-observable | 100% | not-observable |  |  |  | 
3 | CC[C@H](C)[C@H](NC(=O)[C@H](CCCCN)NC(=O)[C@@H](N)CCCCN)C(=O)N[C@@H](CCCNC(=N)N)C(=O)N[C@H](C(=O)N[C@@H](CCCNC(=N)N)C(=O)N[C@@H](CC(C)C)C(=O)N[C@@H](CO)C(=O)N[C@@H](C)C(=O)NCCCC[C@H](NC(=O)[C@H](C)NC(=O)[C@H](CO)NC(=O)[C@H](CC(C)C)NC(=O)[C@H](CCCNC(=N)N)NC(=O)[C@@H](NC(=O)[C@H](CCCNC(=N)N)NC(=O)[C@@H](NC(=O)[C@H](CCCCN)NC(=O)[C@@H](N)CCCCN)[C@@H](C)CC)C(C)C)C(=O)NCCCC[C@H](NC(=O)[C@H](CCCCNC(=O)[C@H](C)NC(=O)[C@H](CO)NC(=O)[C@H](CC(C)C)NC(=O)[C@H](CCCNC(=N)N)NC(=O)[C@@H](NC(=O)[C@H](CCCNC(=N)N)NC(=O)[C@@H](NC(=O)[C@H](CCCCN)NC(=O)[C@@H](N)CCCCN)[C@@H](C)CC)C(C)C)NC(=O)[C@H](C)NC(=O)[C@H](CO)NC(=O)[C@H](CC(C)C)NC(=O)[C@H](CCCNC(=N)N)NC(=O)[C@@H](NC(=O)[C@H](CCCNC(=N)N)NC(=O)[C@@H](NC(=O)[C@H](CCCCN)NC(=O)[C@@H](N)CCCCN)[C@@H](C)CC)C(C)C)C(=O)NCCC(=O)O)C(C)C [SET-M33 TFA] (I: H-KKIRVRLSAKK[βAla]-OH / II: H-KKIRVRLSAK / III: H-KKIRVRLSA / IV: H-KKIRVRLSA; amide I:10-IV:C, I:11-II:C, II:10-III:C) |  |  |  | 13.6 µM | 3.85 µM | 11.1 µM |  |  |  |  | mild to severe | 66% | 33% | 100%
